Assay results from patent US7045532B2 (Millennium Pharmaceuticals, Inc., priority 1999, dated 2006).
Read-outs that look alike come from different tables or passages of the source.

Molecular target: T1, ACE-2 (Homo sapiens, UniProt Q9BYF1)
T1 construct: a stop codon inserted after the serine immediately preceding the transmembrane domain; made in house; host or cells: CHO K1 cells (transient transfection, purified from conditioned medium)
Assay: ACE-2 Competitive Substrate Assay (ACS Assay)
Format: biochemical

[1] = Ki class, compounds tested in 5% DMSO, 12 compound concentrations, Ki=Kiapp/(1+[S]/Km), read-out: Human ACE-2 Activity
[2] = Table 3, very good ACE-2 inhibiting compounds, species not given, read-out: ACE-2 Activity, Ki

T1 sequence (Q9BYF1 18-740 limits assumed): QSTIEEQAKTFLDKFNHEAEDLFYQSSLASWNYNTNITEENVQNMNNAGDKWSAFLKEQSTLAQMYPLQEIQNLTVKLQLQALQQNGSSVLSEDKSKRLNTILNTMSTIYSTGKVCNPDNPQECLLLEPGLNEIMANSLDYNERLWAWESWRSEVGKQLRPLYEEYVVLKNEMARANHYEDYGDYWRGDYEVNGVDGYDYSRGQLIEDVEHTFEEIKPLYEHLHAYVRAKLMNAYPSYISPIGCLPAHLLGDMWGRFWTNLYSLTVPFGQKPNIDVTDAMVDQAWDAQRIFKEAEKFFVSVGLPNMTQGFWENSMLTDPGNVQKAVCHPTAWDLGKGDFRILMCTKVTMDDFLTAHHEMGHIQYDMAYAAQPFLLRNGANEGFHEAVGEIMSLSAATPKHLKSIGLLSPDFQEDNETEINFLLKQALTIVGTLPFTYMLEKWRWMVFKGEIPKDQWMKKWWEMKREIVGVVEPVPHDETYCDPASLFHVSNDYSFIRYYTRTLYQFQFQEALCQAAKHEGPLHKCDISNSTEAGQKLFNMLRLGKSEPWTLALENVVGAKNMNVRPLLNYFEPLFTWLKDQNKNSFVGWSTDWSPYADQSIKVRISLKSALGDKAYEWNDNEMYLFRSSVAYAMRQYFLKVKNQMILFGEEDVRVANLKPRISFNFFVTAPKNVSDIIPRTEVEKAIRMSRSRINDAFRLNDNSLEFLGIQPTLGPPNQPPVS

Row | Compound | Ki [1] [nM] | Ki [2] [nM] | Ki (Ki class, compounds tested in 5% DMSO, 12 concentrations, read-out: Human ACE-2 Activity) [nM]
1 | CC(C)CC(N[C@@H](Cc1cncn1Cc1c(Cl)cccc1Cl)C(=O)O)C(=O)O (single isomer, unassigned) [JD, 2-[1-Carboxy-2-[3-(2,6-dichloro-benzyl)-3H-imidazol-4-yl]-ethylamino]4-methyl-pentanoic acid] | > 500 |  | 
2 | CC(C)CC(N[C@@H](Cc1cncn1Cc1ccc2c(c1)OCO2)C(=O)O)C(=O)O (single isomer, unassigned) [JF] | > 500 |  | 
3 | CC(C)CC(N[C@@H](Cc1cncn1CC1CCCCC1)C(=O)O)C(=O)O (single isomer, unassigned) [JG, 2-[1-Carboxy-2-(3-cyclohexylmethyl-3H-imidazol-4-yl)-ethylamino]4-methyl-pentanoic acid] | > 500 |  | 
4 | CC(C)CC(N[C@@H](Cc1cncn1CCC1CCCCC1)C(=O)O)C(=O)O (single isomer, unassigned) [JJ, 2-[1-Carboxy-2-[3-(2-cyclohexyl-ethyl)-3H-imidazol-4-yl]-ethylamino]4-methyl-pentanoic acid] | > 500 |  | 
5 | CC(C)CC(N[C@@H](Cc1cncn1CCc1ccccc1)C(=O)O)C(=O)O (single isomer, unassigned) [JL, 2-[1-Carboxy-2-[3-phenethyl-3H-imidazol-4-yl)-ethylamino]-4-methyl-pentanoic acid] | > 500 |  | 
6 | CCC(CC)Cn1cncc1C[C@H](NC(CC(C)C)C(=O)O)C(=O)O (single isomer, unassigned) [JM, 2-[1-Carboxy-2-[3-(2-ethylbutyl)-3H-imidazol-4-yl]-ethylamino]-4-methyl-pentanoic acid] | < 100 |  | 
7 | CCC(CC)Cn1cncc1C[C@H](NC(CC(C)C)C(=O)O)C(=O)O (single isomer, unassigned) [JN, 2-[1-Carboxy-2-[3-(2-ethylbutyl)-3H-imidazol-4-yl]-ethylamino]-4-methyl-pentanoic acid] | > 500 |  | 
8 | CC(C)CC(N[C@@H](Cc1cncn1Cc1cccc(F)c1)C(=O)O)C(=O)O (single isomer, unassigned) [JR, 2-[1-Carboxy-2-[3-(3-fluoro-benzyl)-3H-imidazol-4-yl]-ethylamino]4-methyl-pentanoic acid] | 100 to 500 |  | 
9 | CC(C)CC(N[C@@H](Cc1csc(Cc2ccccc2)n1)C(=O)O)C(=O)O (single isomer, unassigned) [JZ, 2-[2-(2-Benzyl-thiazol-4-yl)-1-carboxy-ethylamino]-4-methyl-pentanoic acid] | > 500 |  | 
10 | Cc1nc(C[C@H](NC(CC(C)C)C(=O)O)C(=O)O)c(Cc2ccccc2)s1 (single isomer, unassigned) [KB, 2-[2-(5-Benzyl-2-methyl-thiazol-4-yl)-1-carboxy-ethylamino]-4-methyl-pentanoic acid] | 100 to 500 |  | 
11 | Cc1nc(C[C@H](NC(CC(C)C)C(=O)O)C(=O)O)c(Cc2ccccc2)s1 (single isomer, unassigned) [KC, 2-[2-(5-Benzyl-2-methyl-thiazol-4-yl)-1-carboxy-ethylamino]-4-methyl-pentanoic acid] | > 500 |  | 
12 | CC(C)C[C@H](N[C@@H](Cc1cncn1Cc1cc(Cl)cc(Cl)c1)C(=O)OCc1ccccc1)C(=O)O (single isomer, unassigned) [LC, 2-(1-Benzyloxycarbonyl-2-[3-(3,5-dichloro-benzyl)-3H-imidazol-4-yl]-ethylamino]-4-methyl-pentanoic acid] | < 100 | < 50 | 
13 | CC(C)CC(N[C@@H](Cc1csc(-c2ccccc2)n1)C(=O)O)C(=O)O (stereo in doubt) [GQ, 2-[1-Carboxy-2-[2-phenyl-thiazol-4-yl)-ethylamino]-4-methyl-pentanoic acid] |  |  | > 500
14 | Cc1cc(C[C@H](NC(CC(C)C)C(=O)O)C(=O)O)no1 (stereo in doubt) [IM, 2-[1-Carboxy-2-(5-methyl-isoxazol-3-yl)-ethylamino]-4-methyl-pentanoic acid] | > 500 |  | 
15 | CC(C)C[C@H](N[C@@H](CC1COC(=O)N1Cc1cc(Cl)cc(Cl)c1)C(=O)O)C(=O)O (stereo in doubt) [NE, (S,S,S)-2-{1-Carboxy-2-[3-(3,5-dichloro-benzyl)-2-oxo-oxazolidin-4-yl]-ethylamino}-4-methyl-pentanoic acid] | < 100 | 50 to 100 | 
